Consider 32 compounds from US9776995B2, “Bicyclic sulfonamide compounds as sodium channel inhibitors” (AMGEN INC., priority 2013, dated 2017).

Chain of Nav 1.7 (Q15858 whole entry): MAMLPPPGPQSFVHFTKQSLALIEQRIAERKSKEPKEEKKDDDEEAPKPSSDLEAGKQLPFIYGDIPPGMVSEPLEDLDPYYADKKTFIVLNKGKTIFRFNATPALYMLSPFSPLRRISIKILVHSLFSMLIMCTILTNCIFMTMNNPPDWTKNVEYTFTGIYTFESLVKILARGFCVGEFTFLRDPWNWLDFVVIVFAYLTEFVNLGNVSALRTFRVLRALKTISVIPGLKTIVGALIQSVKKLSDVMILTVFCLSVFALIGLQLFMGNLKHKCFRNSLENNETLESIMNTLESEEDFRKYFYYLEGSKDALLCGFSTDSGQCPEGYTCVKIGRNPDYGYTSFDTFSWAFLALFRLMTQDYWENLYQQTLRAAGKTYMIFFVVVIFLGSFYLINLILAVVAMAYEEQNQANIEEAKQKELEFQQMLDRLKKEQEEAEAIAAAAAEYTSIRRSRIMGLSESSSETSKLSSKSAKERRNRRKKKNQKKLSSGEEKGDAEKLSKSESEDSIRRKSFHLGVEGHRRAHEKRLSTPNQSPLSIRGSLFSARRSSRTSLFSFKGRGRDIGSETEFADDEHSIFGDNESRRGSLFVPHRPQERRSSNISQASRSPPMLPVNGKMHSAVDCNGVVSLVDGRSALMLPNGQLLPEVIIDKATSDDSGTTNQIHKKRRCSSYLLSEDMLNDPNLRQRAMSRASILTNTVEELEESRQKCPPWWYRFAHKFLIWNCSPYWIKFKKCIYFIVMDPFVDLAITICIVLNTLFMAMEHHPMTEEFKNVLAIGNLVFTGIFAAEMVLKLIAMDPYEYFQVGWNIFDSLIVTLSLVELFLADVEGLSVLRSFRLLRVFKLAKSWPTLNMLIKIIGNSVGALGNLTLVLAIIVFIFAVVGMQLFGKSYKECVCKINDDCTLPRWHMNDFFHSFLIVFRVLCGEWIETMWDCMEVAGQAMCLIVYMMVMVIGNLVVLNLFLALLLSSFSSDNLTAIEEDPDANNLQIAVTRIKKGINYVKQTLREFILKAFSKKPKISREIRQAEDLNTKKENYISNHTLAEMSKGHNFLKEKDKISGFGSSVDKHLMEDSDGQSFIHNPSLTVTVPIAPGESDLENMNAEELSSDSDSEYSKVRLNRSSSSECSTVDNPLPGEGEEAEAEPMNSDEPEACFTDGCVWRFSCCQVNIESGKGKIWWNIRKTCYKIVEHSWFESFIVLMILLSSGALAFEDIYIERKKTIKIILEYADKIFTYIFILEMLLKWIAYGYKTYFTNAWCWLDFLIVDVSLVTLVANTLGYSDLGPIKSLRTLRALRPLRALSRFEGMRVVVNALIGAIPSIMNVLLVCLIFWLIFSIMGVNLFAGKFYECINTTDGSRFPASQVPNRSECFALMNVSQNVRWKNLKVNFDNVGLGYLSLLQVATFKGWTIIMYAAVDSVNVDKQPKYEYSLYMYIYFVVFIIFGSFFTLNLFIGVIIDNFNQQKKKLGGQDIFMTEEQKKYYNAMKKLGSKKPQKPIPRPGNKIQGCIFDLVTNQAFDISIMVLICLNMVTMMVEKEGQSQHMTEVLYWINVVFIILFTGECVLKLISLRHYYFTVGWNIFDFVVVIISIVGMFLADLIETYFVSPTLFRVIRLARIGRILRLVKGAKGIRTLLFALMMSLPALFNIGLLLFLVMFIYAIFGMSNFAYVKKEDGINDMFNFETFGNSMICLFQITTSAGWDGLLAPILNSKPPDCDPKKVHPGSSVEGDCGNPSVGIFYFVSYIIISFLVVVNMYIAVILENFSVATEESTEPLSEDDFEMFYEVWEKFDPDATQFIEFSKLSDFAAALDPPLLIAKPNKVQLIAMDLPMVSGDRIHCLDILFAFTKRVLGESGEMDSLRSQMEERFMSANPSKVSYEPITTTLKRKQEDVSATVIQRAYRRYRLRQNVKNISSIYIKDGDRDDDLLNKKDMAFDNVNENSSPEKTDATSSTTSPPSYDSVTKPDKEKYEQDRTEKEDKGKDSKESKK

The first assay concerns the target Nav 1.7 (Homo sapiens (Human), UniProt Q15858). Nature of the assay: Nav 1.7 in vitro PX assay (PatchXpress whole cell voltage clamp).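 Note: holding potential set for 20 to 50% inactivation, sodium current evoked by a 20 ms step to −10 mV, peak current inhibition read after compound exposure, 3–5 cells per concentration.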
Details: not given
Type of assay: cell-based.
In turn, `COc1cc(-c2cccc(F)c2)c(Cl)cc1-c1ncnc2cc(S(=O)(=O)Nc3cscn3)ccc12` [Example 378, 4-(2-chloro-3′-fluoro-5-methoxy-[1,1′-biphenyl]-4-yl)-N-(thiazol-4-yl)quinazoline-7-sulfonamide 2,2,2-trifluoroacetate] returned a half-maximal inhibitory concentration (IC50) of 231 nM.

The same assay, now with this note: HEK 293 cells stably transfected with human Nav1.7; PatchXpress; partially inactivated state.
In the case of `COc1cc(-c2cccc(F)c2)c(Cl)cc1-c1c(=O)[nH]cc2cc(S(=O)(=O)Nc3ccon3)ccc12` [Example 398, 4-(2-CHLORO-3′-FLUORO-5-METHOXY-[1,1′-BIPHENYL]-4-YL)-N-(ISOXAZOL-3-YL)-3-OXO-2,3-DIHYDROISOQUINOLINE-7-SULFONAMIDE], half-maximal inhibition (IC50) required 27 nM.
The compound `COc1cc(-c2cc(F)cc(Cl)c2)c(F)cc1-c1c[nH]c(=O)c2cc(S(=O)(=O)Nc3ccon3)ccc12` [Example 451, 4-(3′-CHLORO-2,5′-DIFLUORO-5-METHOXY-[1,1′-BIPHENYL]-4-YL)-N-(ISOXAZOL-3-YL)-1-OXO-1,2-DIHYDROISOQUINOLINE-7-SULFONAMIDE] registered an IC50 of 77 nM.
The same measure, in the same setting: with `COc1cc(-c2cccc(F)c2)c(Cl)cc1-c1c(OC)cnc2cc(S(=O)(=O)Nc3ccon3)ccc12` (atropisomer, axis not shown; (M)) [Example 339, (M)-4-(2-chloro-3′-fluoro-5-methoxy-[1,1′-biphenyl]-4-yl)-N-(isoxazol-3-yl)-3-methoxyquinoline-7-sulfonamide] the figure was 630 nM.
Still for that read-out and setting: as for `COc1cc(F)cc(-c2cc(OC)c(-c3nccc4cc(S(=O)(=O)Nc5ccon5)ccc34)cc2F)c1` [Example 316, 1-(2,3′-difluoro-5,5′-dimethoxy-4-biphenylyl)-N-3-isoxazolyl-6-isoquinolinesulfonamide], the figure is 40 nM; as for `COc1cc(-c2cc(F)cc(F)c2)c(Cl)cc1-c1ncnc2cc(S(=O)(=O)Nc3ncccn3)ccc12` [Example 435, 4-(2-CHLORO-3′,5′-DIFLUORO-5-METHOXY-[1,1′-BIPHENYL]-4-YL)-N-(PYRIMIDIN-2-YL)QUINAZOLINE-7-SULFONAMIDE], 86 nM.
Same read-out and setting: as for `COc1cc(-c2cccc(F)c2)c(F)cc1-c1nc(Cl)cc2cc(S(=O)(=O)Nc3ccon3)ccc12` [Example 393, 3-CHLORO-1-(2,3′-DIFLUORO-5-METHOXY-4-BIPHENYLYL)-N-3-ISOXAZOLYL-6-ISOQUINOLINESULFONAMIDE], the figure is 157 nM; as for `COc1cc(F)c(-c2cncc(F)c2)cc1-c1nccc2cc(S(=O)(=O)Nc3ccon3)ccc12` [Example 392, 1-(4-fluoro-5-(5-fluoropyridin-3-yl)-2-methoxyphenyl)-N-(isoxazol-3-yl)isoquinoline-6-sulfonamide 2,2,2-trifluoroacetate], 491 nM.
For `COc1cc(-c2cccc(F)c2)c(Cl)cc1-c1c(N)nnc2cc(S(=O)(=O)Nc3ccon3)ccc12` [Example 446, 3-AMINO-4-(2-CHLORO-3′-FLUORO-5-METHOXY-[1,1′-BIPHENYL]-4-YL)-N-(ISOXAZOL-3-YL)CINNOLINE-7-SULFONAMIDE], the IC50 was determined as 28 nM.
The same measure, in the same setting: with `COc1cc(-c2cc(F)cc(Cl)c2)c(F)cc1-c1c(=O)[nH]cc2cc(S(=O)(=O)Nc3ccon3)ccc12` [Example 550, 4-(3′-chloro-2,5′-difluoro-5-methoxy-4-biphenylyl)-N-3-isoxazolyl-3-oxo-2,3-dihydro-7-isoquinolinesulfonamide] the figure was 6 nM; with `COc1cc(-c2cc(F)ccc2F)c(C)cc1-c1ncnc2cc(S(=O)(=O)Nc3ccon3)ccc12` [Example 564, 4-(2′,5′-difluoro-5-methoxy-2-methyl-4-biphenylyl)-N-3-isoxazolyl-7-quinazolinesulfonamide], 94 nM; with `COc1cc(-c2cccc(F)c2)c(Cl)cc1-c1c(OC)ncc2cc(S(=O)(=O)Nc3ccon3)ccc12` [Example 401, 4-(2-CHLORO-3′-FLUORO-5-METHOXY-[1,1′-BIPHENYL]-4-YL)-N-(ISOXAZOL-3-YL)-3-METHOXYISOQUINOLINE-7-SULFONAMIDE], 613 nM.
`COc1cc(-c2cccc(F)c2)c(Cl)cc1-c1c(N)cnc2cc(S(=O)(=O)Nc3ccon3)ccc12` [Example 336, 3-amino-4-(2-chloro-3′-fluoro-5-methoxy-[1,1′-biphenyl]-4-yl)-N-(isoxazol-3-yl)quinoline-7-sulfonamide] had an IC50 of 35 nM.
On to `COc1cc(-c2ccc(Cl)c(C)c2)c(F)cc1-c1c[nH]c(=O)c2cc(S(=O)(=O)Nc3ccon3)ccc12` [Example 452, 4-(4′-CHLORO-2-FLUORO-5-METHOXY-3′-METHYL-[1,1′-BIPHENYL]-4-YL)-N-(ISOXAZOL-3-YL)-1-OXO-1,2-DIHYDROISOQUINOLINE-7-SULFONAMIDE], for which the half-maximal inhibitory concentration (IC50) is 184 nM.
Still for that read-out and setting: with `COc1cc(-c2cccc(F)c2)c(Cl)cc1-c1[nH]c(=O)cc2cc(S(=O)(=O)Nc3ncccn3)ccc12` [Example 553, 1-(2-chloro-3′-fluoro-5-methoxy-4-biphenylyl)-3-oxo-N-2-pyrimidinyl-2,3-dihydro-6-isoquinolinesulfonamide] the figure was 45 nM; with `COc1cc(-c2cccc(F)c2)c(Cl)cc1-c1c(C#N)cnc2cc(S(=O)(=O)Nc3ccon3)ccc12` (atropisomer, axis not shown; (P)) [Example 335, (P)-4-(2-chloro-3′-fluoro-5-methoxy-[1,1′-biphenyl]-4-yl)-3-cyano-N-(isoxazol-3-yl)quinoline-7-sulfonamide], 112 nM.
The same measure, in the same setting: with `COc1cc(-c2cc(Cl)ccc2C)c(C)cc1-c1ncnc2cc(S(=O)(=O)Nc3ccon3)ccc12` [Example 558, 4-(5′-chloro-5-methoxy-2,2′-dimethyl-4-biphenylyl)-N-3-isoxazolyl-7-quinazolinesulfonamide] the figure was 41 nM.

The same assay, now with this note: PatchXpress (PX).
Compound `COc1cc(-c2ccc(F)c(C)c2)c(C)cc1-c1nccc2cc(S(=O)(=O)Nc3ccon3)ccc12` [Example 274, 1-(4′-fluoro-5-methoxy-2,3′-dimethyl-4-biphenylyl)-N-3-isoxazolyl-6-isoquinolinesulfonamide] came in with an IC50 of 63.2 nM.
The same measure, in the same setting: as for `COc1cc(-c2cc(F)cc(Cl)c2)c(C)cc1-c1ncnc2cc(S(=O)(=O)Nc3ccon3)ccc12` [Example 270, 4-(3′-chloro-5′-fluoro-5-methoxy-2-methyl-4-biphenylyl)-N-3-isoxazolyl-7-quinazolinesulfonamide], the figure is 29.9 nM; as for `COc1cc(-c2cccc(C)c2)c(C)cc1-c1ncnc2cc(S(=O)(=O)Nc3ccon3)ccc12` [Example 263, N-3-isoxazolyl-4-(5-methoxy-2,3′-dimethyl-4-biphenylyl)-7-quinazolinesulfonamide], 102 nM.
On the same count and under the same terms, with `COc1cc(-c2ccc(Cl)c(C)c2)c(Cl)cc1-c1nncc2cc(S(=O)(=O)Nc3ccsn3)ccc12` [Example 255, 1-(2,4′-dichloro-5-methoxy-3′-methyl-4-biphenylyl)-N-3-isothiazolyl-6-phthalazinesulfonamide] the figure was 320 nM; with `COc1cc(C(F)(F)F)c(C2CC2)cc1-c1nccc2cc(S(=O)(=O)Nc3ccon3)ccc12` [Example 258, 1-(5-cyclopropyl-2-methoxy-4-(trifluoromethyl)phenyl)-N-3-isoxazolyl-6-isoquinolinesulfonamide], 543 nM.
The same measure, in the same setting: as for `COc1cc(-c2ccc(Cl)c(C)c2)c(Cl)cc1-c1nncc2cc(S(=O)(=O)Nc3ccon3)ccc12` [Example 245, 1-(2,4′-dichloro-5-methoxy-3′-methyl-4-biphenylyl)-N-3-isoxazolyl-6-phthalazinesulfonamide], the figure is 15.4 nM; as for `COc1cc(-c2ccc(F)c(C)c2)c(C)cc1-c1ncnc2cc(S(=O)(=O)Nc3ccon3)ccc12` [Example 261, 4-(4′-fluoro-5-methoxy-2,3′-dimethyl-4-biphenylyl)-N-3-isoxazolyl-7-quinazolinesulfonamide], 38.1 nM.
Consider `COc1cc(-c2cccc(F)c2)c(Cl)cc1-c1nccc2cc(S(=O)(=O)Nc3ncco3)ccc12` [Example 257, 1-(2-chloro-3′-fluoro-5-methoxy-4-biphenylyl)-N-1,3-oxazol-2-yl-6-isoquinolinesulfonamide], for which the IC50 stood at 222 nM.
`COc1cc(-c2cccc(F)c2)c(Cl)cc1-c1nccc2cc(S(=O)(=O)Nc3ccsn3)ccc12` [Example 254, 1-(2-chloro-3′-fluoro-5-methoxy-4-biphenylyl)-N-3-isothiazolyl-6-isoquinolinesulfonamide]: inhibition was half-maximal at 289 nM (IC50).
Consider `COc1cc(-c2cc(C)cc(Cl)c2)c(C)cc1-c1ncnc2cc(S(=O)(=O)Nc3ccon3)ccc12` [Example 268, 4-(3′-chloro-5-methoxy-2,5′-dimethyl-4-biphenylyl)-N-3-isoxazolyl-7-quinazolinesulfonamide], for which the IC50 was 23.9 nM.

Staying with this assay, now noted: in-vitro Nav 1.7 PX (PatchXpress).
On to `COc1cc(-c2cccc(F)c2)c(Cl)cc1-c1cn(C)c2cc(S(=O)(=O)Nc3ccon3)ccc12` [Example 57, 3-(2-CHLORO-3′-FLUORO-5-METHOXY-[1,1′-BIPHENYL]-4-YL)-N-(ISOXAZOL-3-YL)-1-METHYL-1H-INDOLE-6-SULFONAMIDE], for which the half-maximal inhibitory concentration (IC50) turned out to be 12900 nM.
In the case of `COc1cc(-c2cccc(F)c2)c(Cl)cc1-c1ncnc2cc(S(=O)(=O)Nc3ncc(F)cn3)ccc12` [Example 289, 4-(2-chloro-3′-fluoro-5-methoxy-4-biphenylyl)-N-(5-fluoro-2-pyrimidinyl)-7-quinazolinesulfonamide], the IC50 amounted to 89.5 nM.
On the same count and under the same terms, with `COc1cc(-c2cc(C)cc(Cl)c2)c(Cl)cc1-c1ncnc2cc(S(=O)(=O)Nc3ccon3)ccc12` [Example 311, 4-(2,3′-dichloro-5-methoxy-5′-methyl-4-biphenylyl)-N-3-isoxazolyl-7-quinazolinesulfonamide] the figure was 40 nM; with `COc1cc(-c2cc(F)cc(Cl)c2)c(F)cc1-c1ncnc2cc(S(=O)(=O)Nc3ccon3)ccc12` [Example 302, 4-(3′-chloro-2,5′-difluoro-5-methoxy-4-biphenylyl)-N-3-isoxazolyl-7-quinazolinesulfonamide], 22 nM; with `COc1cc(-c2ccc(Cl)c(F)c2)ccc1-c1nccc2cc(S(=O)(=O)Nc3ccon3)ccc12` [Example 290, 1-(4′-chloro-3′-fluoro-3-methoxy-4-biphenylyl)-N-3-isoxazolyl-6-isoquinolinesulfonamide], 137 nM.
